A short description of series [1]: RNA encapsulation efficiency of LNP (Ribogreen fluorescence assay). The settings on record: LNP with the compound as amine lipid, composition ratio (mol %) 50/9/38/3 for Cmpnd 49, 50/10/38.5/1.5 for the others. In kind it is physicochemical. On the procedure:
A fluorescence-based assay (Ribogreen®, ThermoFisher Scientific) is used to determine total RNA concentration and free RNA. Encapsulation efficiency is calculated as (Total RNA—Free RNA)/Total RNA. LNP samples are diluted appropriately with 1× TE buffer containing 0.2% Triton-X 100 to determine total RNA or 1× TE buffer to determine free RNA. Standard curves are prepared by utilizing the starting RNA solution used to make the compositions and diluted in 1× TE buffer+/−0.2% Triton-X 100. Diluted RiboGreen® dye (according to the manufacturer's instructions) is then added to each of the standards and samples and allowed to incubate for approximately 10 minutes at room temperature, in the absence of light. A SpectraMax M5 Microplate Reader (Molecular Devices) is used to read the samples with excitation, auto cutoff and emission wavelengths set to 488 nm, 515 nm, and 525 nm respectively. Total RNA and free RNA are determined from the appropriate standard curves.
Encapsulation efficiency is calculated as (Total RNA−Free RNA)/Total RNA. The same procedure may be used for determining the encapsulation efficiency of a DNA-based cargo component. For single-strand DNA, Oligreen Dye may be used and for double-strand DNA, Picogreen Dye.

A further series deals with mouse TTR. As to the kind of experiment: Serum TTR ELISA in mice after LNP delivery. In kind it is in vivo. The settings on record: mouse serum, relative to TSS control of same experiment. Here is the method:
For studies measuring in vivo editing in liver, CD-1 female mice were dosed at 0.1 mpk unless otherwise noted. Animals were euthanized at 6 or 7 days by exsanguinationvia cardiac puncture under isoflourane anesthesia. Liver tissue was collected from each animal for DNA extraction and analysis. Blood was collected into serum separator tubes or into tubes containing buffered sodium citrate for plasma as described herein. Cohorts of mice were measured for editing by Next-Generation Sequencing (NGS).
Blood was collected and the serum was isolated as indicated. The total mouse TTR serum levels were determined using a Mouse Prealbumin (Transthyretin) ELISA Kit (Aviva Systems Biology, Cat. OKIA00111). Briefly, sera were serial diluted with kit sample diluent, e.g. to a final dilution of 10,000-fold and/or 2,500-fold. The diluted sample was then added to the ELISA plates and the assay was then carried out according to directions. Serum TTR data from treatment groups are expressed as a percentage of vehicle control levels.
A general note: ELISA stands for enzyme-linked immunosorbent assay.

Series [2] can be described thus: LNP average particle size and polydispersity by dynamic light scattering. In kind it is physicochemical. The conditions noted are these: LNP with the compound as amine lipid, composition ratio (mol %) 50/9/38/3 for Cmpnd 49, 50/10/38.5/1.5 for the others. The text has this: The LNPs have a size of about 1 to about 1,000 nm, about 10 to about 500 nm, about 20 to about 500 nm, in a sub-embodiment about 50 to about 400 nm, in a sub-embodiment about 50 to about 300 nm, in a sub-embodiment about 50 to about 200 nm, and in a sub-embodiment about 50 to about 150 nm, and in another sub-embodiment about 60 to about 120 nm. Preferably, the LNPs have a size from about 60 nm to about 100 nm. The average sizes (diameters) of the fully formed LNP, may be measured by dynamic light scattering on a Malvern Zetasizer. The LNP sample is diluted in phosphate buffered saline (PBS) so that the count rate is approximately 200-400 kcps. The data is presented as a weighted average of the intensity measure.
In some embodiments, the LNPs have a size of about 75 to about 120 nm. In some embodiments, the LNPs have a size of about 75 to about 100 nm. Unless indicated otherwise, all sizes referred to herein are the average sizes (diameters) of the fully formed nanoparticles, as measured by dynamic light scattering on a Malvern Zetasizer. The nanoparticle sample is diluted in phosphate buffered saline (PBS) so that the count rate is approximately 200-400 kcps. The data is presented as a weighted-average of the intensity measure (Z-average diameter).
Dynamic Light Scattering (“DLS”) is used to characterize the polydispersity index (“pdi”) and size of the LNPs of the present disclosure. DLS measures the scattering of light that results from subjecting a sample to a light source. PDI, as determined from DLS measurements, represents the distribution of particle size (around the mean particle size) in a population, with a perfectly uniform population having a PDI of zero. Electropheretic light scattering is used to characterize the surface charge of the LNP at a specified pH. The surface charge, or the zeta potential, is a measure of the magnitude of electrostatic repulsion/attraction between particles in the LNP suspension. Asymmetric-Flow Field Flow Fractionation—Multi-Angle Light Scattering (AF4-MALS) is used to separate particles in the composition by hydrodynamic radius and then measure the molecular weights, hydrodynamic radii and root mean square radii of the fractionated particles. […] Nanoparticle tracking analysis (NTA, Malvern Nanosight) can be used to determine particle size distribution as well as particle concentration. LNP samples are diluted appropriately and injected onto a microscope slide. A camera records the scattered light as the particles are slowly infused through field of view. After the movie is captured, the Nanoparticle Tracking Analysis processes the movie by tracking pixels and calculating a diffusion coefficient. This diffusion coefficient can be translated into the hydrodynamic radius of the particle. The instrument also counts the number of individual particles counted in the analysis to give particle concentration.
LNP compositions are analyzed for average particle size, polydispersity index (pdi), total RNA content, encapsulation efficiency of RNA, and zeta potential. LNP compositions may be further characterized by lipid analysis, AF4-MALS, NTA, and/or cryo-EM. Average particle size and polydispersity are measured by dynamic light scattering (DLS) using a Malvern Zetasizer DLS instrument. LNP samples were diluted with PBS buffer prior to being measured by DLS. Z-average diameter which is an intensity-based measurement of average particle size was reported along with number average diameter and pdi. A Malvern Zetasizer instrument is also used to measure the zeta potential of the LNP. Samples are diluted 1:17 (50 μL into 800 μL) in 0.1×PBS, pH 7.4 prior to measurement.

Series [3] in a line: pKa of amine lipid by TNS fluorescence. The settings on record: probe TNS (6-(p-toluidino)-2-naphthalenesulfonic acid sodium salt), unformulated amine lipid in ethanol, sodium phosphate buffers -9.0. The series is classed as physicochemical. Here is the method: The pKa of each amine lipid was determined according to the method in Jayaraman, et al. (Angewandte Chemie, 2012) with the following adaptations. The pKa was determined for unformulated amine lipid in ethanol. Lipid stock solutions (2.94 mM) were diluted into Sodium Phosphate Buffers (0.1 M, Boston Bioproducts) of different pH (pH-range: 4.5-9.0) yielding a final lipid concentration of approx. 100 μM. The test samples were supplemented with TNS {6-(p-Toluidino)-2-naphthalenesulfonic acid sodium salt}, incubated and the fluorescence intensity was measured using excitation and emission wavelengths of 321 nm and 448 nm, respectively. The recorded data were normalized and the respective pKa values were derived from sigmoidal fitting.

`CCCCC/C=C\C/C=C\CCCCCCCC(=O)OCC(COC(=O)CCCCCCC/C=C\C/C=C\CCCCC)OC(=O)CCC(CCCCCCCCCC)OC(=O)OCCCN1CCCC1` (centres unmarked) [Compound 66, 2-((4-(((3-(pyrrolidin-1-yl)propoxy)carbonyl)oxy)tetradecanoyl)oxy)propane-1,3-diyl (9Z,9′Z,12Z,12′Z)-bis(octadeca-9,12-dienoate)]: the “Encapsulation (%)” value in series [1] (Expt. 7) is 98%. Further, the “Serum TTR % TSS” value in the series on mouse TTR (dose 0.03 mpk) is given as 54.682 % TSS. In the series on mouse TTR (dose 0.1 mpk), the “Serum TTR % TSS” value was 19.674 % TSS. In series [2] (Expt. 7), the “Num Ave Size (nm)” value is reported as 65.07 nm, the PDI came to 0.035 and the “Z-Ave Size (nm)” value is on record as 79.79 nm. Moreover, the pKa – broadly, the negative logarithm of the acid dissociation constant – in series [3] came to 6.15.

In the case of `CCCCC/C=C\C/C=C\CCCCCCCC(=O)OCC(COC(=O)CCCCCCC/C=C\C/C=C\CCCCC)OC(=O)CCC(CC/C=C\CCCCC)OC(=O)NCCN(C)CC` (centres unmarked) [Compound 107, 2-(((Z)-4-(((2-(ethyl(methyl)amino)ethyl)carbamoyl)oxy)tridec-7-enoyl)oxy)propane-1,3-diyl (9Z,9′Z,12Z,12′Z)-bis(octadeca-9,12-dienoate)], in series [1] (Expt. 9), the “Encapsulation (%)” value amounted to 98%. For the same compound, the “Serum TTR % TSS” value in the series with mouse TTR (dose 0.03 mpk) came out at 58.53 % TSS. In series [2] (Expt. 9), the “Num Ave Size (nm)” value worked out at 72 nm, the PDI was 0.03 and the “Z-Ave Size (nm)” value is recorded as 89 nm. Moreover, the pKa in series [3] came out at 6.35.

In the case of `CCCCC/C=C\C/C=C\CCCCCCCC(=O)OCC(COC(=O)CCCCCCC/C=C\C/C=C\CCCCC)OC(=O)CCC(CCCCC)OC(=O)NCCN(C)CC` (centres unmarked) [Compound 69, 2-((4-(((2-(ethyl(methyl)amino)ethyl)carbamoyl)oxy)nonanoyl)oxy)propane-1,3-diyl (9Z,9′Z,12Z,12′Z)-bis(octadeca-9,12-dienoate)], the “Encapsulation (%)” value in series [1] (Expt. 4) amounted to 96%. Also, the “Serum TTR % TSS” value with mouse TTR (dose 0.03 mpk) worked out at 54% TSS. For the same compound, the “Serum TTR % TSS” value in the series on mouse TTR (dose 0.1 mpk) came out at 12% TSS. Also, in series [2] (Expt. 4), the “Num Ave Size (nm)” value was determined as 88.76 nm, the PDI was found to be 0.017 and the “Z-Ave Size (nm)” value stood at 108.90 nm. For the same compound, the pKa in series [3] came out at 6.44.

With `CCCCC/C=C\C/C=C\CCCCCCCC(=O)OCC(COC(=O)CCCCCCC/C=C\C/C=C\CCCCC)OC(=O)CCC(CCCCCCCCCC)OC(=O)NCC1CCCN1C` (centres unmarked) [Compound 65, 2-((4-((((1-methylpyrrolidin-2-yl)methyl)carbamoyl)oxy)tetradecanoyl)oxy)propane-1,3-diyl (9Z,9′Z,12Z,12′Z)-bis(octadeca-9,12-dienoate)], in series [1] (Expt. 8), the “Encapsulation (%)” value is given as 99%. In addition, the “Serum TTR % TSS” value with mouse TTR (dose 0.03 mpk) is 119.84 % TSS. The “Serum TTR % TSS” value in the series on mouse TTR (dose 0.1 mpk) is recorded as 99.22 % TSS. Besides, in series [2] (Expt. 8), the “Num Ave Size (nm)” value came out at 52.04 nm, the PDI stood at 0.056 and the “Z-Ave Size (nm)” value was determined as 69.67 nm. Further, the pKa in series [3] stood at 6.37.

As for `CCCCC/C=C\C/C=C\CCCCCCCC(=O)OCC(COC(=O)CCCCCCC/C=C\C/C=C\CCCCC)OC(=O)CCC(CCCCCCCC)OC(=O)NCCN1CCCCC1` (centres unmarked) [Compound 94, 2-((4-(((2-(piperidin-1-yl)ethyl)carbamoyl)oxy)dodecanoyl)oxy)propane-1,3-diyl (9Z,9′Z,12Z,12′Z)-bis(octadeca-9,12-dienoate)], the Encapsulation (%) in series [1] (Expt. 10) is 98%. Further, in series [2] (Expt. 10), the “Num Ave Size (nm)” value is 53 nm, the PDI is 0.06 and the “Z-Ave Size (nm)” value came to 70 nm. The pKa in series [3] was 5.8.

In the case of `CCCCC/C=C\C/C=C\CCCCCCCC(=O)OCC(COC(=O)CCCCCCC/C=C\C/C=C\CCCCC)OC(=O)CC[C@@H](CCCCCCCC)OC(=O)NCCN(C)CC` [Compound 87, 2-(((R)-4-(((2-(ethyl(methyl)amino)ethyl)carbamoyl)oxy)dodecanoyl)oxy)propane-1,3-diyl (9Z,9′Z,12Z,12′Z)-bis(octadeca-9,12-dienoate)], the “Encapsulation (%)” value in series [1] (Expt. 6) amounted to 98%. Also, in the series with mouse TTR (dose 0.03 mpk), the “Serum TTR % TSS” value is recorded as 80.21 % TSS. Further, in the series on mouse TTR (dose 0.1 mpk), the “Serum TTR % TSS” value is 33.33 % TSS. In addition, in series [2] (Expt. 6), the “Num Ave Size (nm)” value is 63 nm, the PDI was determined as 0.06 and the “Z-Ave Size (nm)” value worked out at 83.00 nm.

As to `CCCCC/C=C\C/C=C\CCCCCCCC(=O)OCC(COC(=O)CCCCCCC/C=C\C/C=C\CCCCC)OC(=O)CC[C@H](CCCCCCCC)OC(=O)NCCN(C)CC` [Compound 88, 2-(((S)-4-(((2-(ethyl(methyl)amino)ethyl)carbamoyl)oxy)dodecanoyl)oxy)propane-1,3-diyl (9Z,9′Z,12Z,12′Z)-bis(octadeca-9,12-dienoate)], in series [1] (Expt. 6), the “Encapsulation (%)” value was 98%. Further, in the series on mouse TTR (dose 0.03 mpk), the “Serum TTR % TSS” value worked out at 75.06 % TSS. Further, the “Serum TTR % TSS” value in the series with mouse TTR (dose 0.1 mpk) is recorded as 33.45 % TSS. For the same compound, in series [2] (Expt. 6), the “Num Ave Size (nm)” value worked out at 73 nm, the PDI is recorded as 0.02 and the “Z-Ave Size (nm)” value was 88.00 nm.

The values above are taken from patent US12077483B2, “Modified amine lipids” (Intellia Therapeutics, Inc., priority 2018, dated 2024).
